Experimental data from patent US6350585B1, “Reagent for assay of amylase isozyme activity” (priority 1998, dated 2002).

How the values were obtained:
[1] = molecular target: T1, S-type amylase (Calibzyme S) (Homo sapiens, UniProt P0DUB6); experiment: amylase isozyme activity assay with potassium thiocyanate as activator, S-type amylase sample; format: biochemical; conditions: for Relative sensitivity: G3CNP at 900 mM = 100; for Percent residual enzyme activity: composition A/B
T1 construct: purchased International Reagents Corporation Calibzyme S
T1 sequence (P0DUB6 16-511): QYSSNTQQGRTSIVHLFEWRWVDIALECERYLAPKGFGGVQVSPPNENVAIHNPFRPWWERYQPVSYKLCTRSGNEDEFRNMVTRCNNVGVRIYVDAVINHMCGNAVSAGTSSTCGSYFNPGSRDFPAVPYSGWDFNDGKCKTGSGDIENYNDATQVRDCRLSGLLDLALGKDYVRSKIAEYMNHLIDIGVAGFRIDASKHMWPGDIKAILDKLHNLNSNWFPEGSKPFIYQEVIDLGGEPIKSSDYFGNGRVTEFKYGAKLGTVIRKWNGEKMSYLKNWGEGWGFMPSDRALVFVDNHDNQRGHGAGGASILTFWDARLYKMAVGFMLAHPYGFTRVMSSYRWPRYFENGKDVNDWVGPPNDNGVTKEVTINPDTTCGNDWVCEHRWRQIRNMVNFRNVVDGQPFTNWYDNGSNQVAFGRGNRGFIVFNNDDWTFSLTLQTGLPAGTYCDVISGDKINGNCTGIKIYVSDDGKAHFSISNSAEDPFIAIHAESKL
Procedure: A reagent for amylase isozyme activity assay comprising each composition as mentioned below was prepared. In the Table showing the composition, GalG2CNP (Example) is 2-chloro-4-nitrophenyl 4-O-β-D-galactopyranosylmaltoside, and G3CNP (Comparative Example) is 2-chloro-4-nitrophenylmaltotrioside.
S-type amylase-inhibiting antibody 88E8 (manufactured by Roche Diagnostics K.K.) 20 mg/L
S-type amylase-inhibiting antibody 66C7 (manufactured by Roche Diagnostics K.K.) 5 mg/L
(§1) Substrate (GalG2CNP (Example) or G3CNP (Comparative Example)) 2.6 mM
(§2) (3) S-type Amylase (Calibzyme S, Manufactured by International Reagents Corporation)
Each sample (0.05 mL was added to the reagent A (3 mL) and the reagent B (3 mL), respectively, and the mixtures were allowed to stand at 37° C. for 3 minutes. Then, the change in absorbance at 405 nm was assayed, and the change in absorbance per minute was calculated. The results are shown in Tables 1 and 2.
In the Tables, P is the case where P-type amylase was used as the sample, and S is the case where S-type amylase was used.
Percent residual enzyme activity (%)=(change in absorbance of composition A)/(change in absorbance of composition B)×100
Relative sensitivity (%)=(change in absorbance of composition B)/(change in absorbance of Comparative Example wherein potassium thiocyanate was 900 mM)×100

[2] = molecular target: T1, S-type amylase (Calibzyme S); experiment: amylase isozyme activity assay with sodium azide as activator, S-type amylase sample; format: biochemical; conditions: for Change in absorbance, Containing Antibody (Composition C) / Change in absorbance, Without antibody (Composition D) / Relative sensitivity / Percent residual enzyme activity: S-type amylase; for Relative sensitivity: G3CNP at 300 mM = 100; for Percent residual enzyme activity: composition C/D
Procedure: S-type amylase inhibitory antibody 88E8 (manufactured by Roche Diagnostics K.K.) 20 mg/L
S-type amylase inhibitory antibody 66C7 (manufactured by Roche Diagnostics K.K.) 5 mg/L
as §1, §2
Each of the above-mentioned samples (0.05 mL) was added to respective reagent C and D (3 mL) and the mixtures were left standing at 37° C. for 3 minutes. Then, change in absorbance at 405 nm was assayed and change in absorbance per minute was calculated.
In the Tables, P is the case where P-type amylase was used as the sample, and S is the case where S-type amylase was used. The relative sensitivity of P and S is based on the change in absorbance of G3CNP as 100, wherein sodium azide was 300 mM.
Percent residual enzyme activity and relative sensitivity were calculated by the following formulas.
Percent residual enzyme activity (%)=(change in absorbance of composition C)/(change in absorbance of composition D)×100
Relative sensitivity (%)=(change in absorbance of composition D)/(change in absorbance of Comparative Example wherein sodium azide was 300 mM)×100

SMILES: O=[N+]([O-])c1ccc(O[C@H]2O[C@H](CO)[C@@H](O[C@H]3O[C@H](CO)[C@@H](O[C@@H]4O[C@H](CO)[C@H](O)[C@H](O)[C@H]4O)[C@H](O)[C@H]3O)[C@H](O)[C@H]2O)c(Cl)c1 [GalG2CNP, 2-chloro-4-nitrophenyl 4-O-β-D-galactopyranosylmaltoside]
- Change in absorbance, Containing Antibody (Composition A) ([1]; potassium thiocyanate 0 mM): 0.9 mABS/min
- Change in absorbance, Without antibody (Composition B) ([1]; potassium thiocyanate 0 mM): 14.3 mABS/min
- Relative sensitivity ([1]; potassium thiocyanate 0 mM): 32.0%
- Percent residual enzyme activity ([1]; potassium thiocyanate 0 mM): 6.3%
- Change in absorbance, Containing Antibody (Composition A) ([1]; potassium thiocyanate 50 mM): 1.4 mABS/min
- Change in absorbance, Without antibody (Composition B) ([1]; potassium thiocyanate 50 mM): 31.1 mABS/min
- Relative sensitivity ([1]; potassium thiocyanate 50 mM): 69.6%
- Percent residual enzyme activity ([1]; potassium thiocyanate 50 mM): 4.5%
- Change in absorbance, Containing Antibody (Composition A) ([1]; potassium thiocyanate 100 mM): 1.7 mABS/min
- Change in absorbance, Without antibody (Composition B) ([1]; potassium thiocyanate 100 mM): 40.2 mABS/min
- Relative sensitivity ([1]; potassium thiocyanate 100 mM): 89.9%
- Percent residual enzyme activity ([1]; potassium thiocyanate 100 mM): 4.2%
- Change in absorbance, Containing Antibody (Composition A) ([1]; potassium thiocyanate 140 mM): 1.8 mABS/min
- Change in absorbance, Without antibody (Composition B) ([1]; potassium thiocyanate 140 mM): 44.6 mABS/min
- Relative sensitivity ([1]; potassium thiocyanate 140 mM): 99.8%
- Percent residual enzyme activity ([1]; potassium thiocyanate 140 mM): 4.0%
- Change in absorbance, Containing Antibody (Composition A) ([1]; potassium thiocyanate 200 mM): 2.2 mABS/min
- Change in absorbance, Without antibody (Composition B) ([1]; potassium thiocyanate 200 mM): 50.0 mABS/min
- Relative sensitivity ([1]; potassium thiocyanate 200 mM): 111.9%
- Percent residual enzyme activity ([1]; potassium thiocyanate 200 mM): 4.4%
- Change in absorbance, Containing Antibody (Composition A) ([1]; potassium thiocyanate 300 mM): 3.0 mABS/min
- Change in absorbance, Without antibody (Composition B) ([1]; potassium thiocyanate 300 mM): 53.6 mABS/min
- Relative sensitivity ([1]; potassium thiocyanate 300 mM): 119.9%
- Percent residual enzyme activity ([1]; potassium thiocyanate 300 mM): 5.6%
- Change in absorbance, Containing Antibody (Composition A) ([1]; potassium thiocyanate 400 mM): 3.8 mABS/min
- Change in absorbance, Without antibody (Composition B) ([1]; potassium thiocyanate 400 mM): 54.5 mABS/min
- Relative sensitivity ([1]; potassium thiocyanate 400 mM): 121.9%
- Percent residual enzyme activity ([1]; potassium thiocyanate 400 mM): 7.0%
- Change in absorbance, Containing Antibody (Composition A) ([1]; potassium thiocyanate 500 mM): 4.7 mABS/min
- Change in absorbance, Without antibody (Composition B) ([1]; potassium thiocyanate 500 mM): 53.7 mABS/min
- Relative sensitivity ([1]; potassium thiocyanate 500 mM): 120.1%
- Percent residual enzyme activity ([1]; potassium thiocyanate 500 mM): 8.8%
- Change in absorbance, Containing Antibody (Composition A) ([1]; potassium thiocyanate 600 mM): 5.7 mABS/min
- Change in absorbance, Without antibody (Composition B) ([1]; potassium thiocyanate 600 mM): 51.9 mABS/min
- Relative sensitivity ([1]; potassium thiocyanate 600 mM): 116.1%
- Percent residual enzyme activity ([1]; potassium thiocyanate 600 mM): 11.0%
- Change in absorbance, Containing Antibody (Composition A) ([1]; potassium thiocyanate 700 mM): 7.2 mABS/min
- Change in absorbance, Without antibody (Composition B) ([1]; potassium thiocyanate 700 mM): 48.6 mABS/min
- Relative sensitivity ([1]; potassium thiocyanate 700 mM): 108.7%
- Percent residual enzyme activity ([1]; potassium thiocyanate 700 mM): 14.8%
- Change in absorbance, Containing Antibody (Composition A) ([1]; potassium thiocyanate 800 mM): 8.2 mABS/min
- Change in absorbance, Without antibody (Composition B) ([1]; potassium thiocyanate 800 mM): 47.1 mABS/min
- Relative sensitivity ([1]; potassium thiocyanate 800 mM): 105.4%
- Percent residual enzyme activity ([1]; potassium thiocyanate 800 mM): 17.4%
- Change in absorbance, Containing Antibody (Composition A) ([1]; potassium thiocyanate 900 mM): 9.6 mABS/min
- Change in absorbance, Without antibody (Composition B) ([1]; potassium thiocyanate 900 mM): 43.3 mABS/min
- Relative sensitivity ([1]; potassium thiocyanate 900 mM): 96.9%
- Percent residual enzyme activity ([1]; potassium thiocyanate 900 mM): 22.2%
- Change in absorbance, Containing Antibody (Composition C) ([2]; sodium azide 0 mM): 0.8 mABS/min
- Change in absorbance, Without antibody (Composition D) ([2]; sodium azide 0 mM): 14.6 mABS/min
- Relative sensitivity ([2]; sodium azide 0 mM): 31.8%
- Percent residual enzyme activity ([2]; sodium azide 0 mM): 5.5%
- Change in absorbance, Containing Antibody (Composition C) ([2]; sodium azide 30 mM): 1.6 mABS/min
- Change in absorbance, Without antibody (Composition D) ([2]; sodium azide 30 mM): 33.2 mABS/min
- Relative sensitivity ([2]; sodium azide 30 mM): 72.3%
- Percent residual enzyme activity ([2]; sodium azide 30 mM): 4.8%
- Change in absorbance, Containing Antibody (Composition C) ([2]; sodium azide 60 mM): 2.0 mABS/min
- Change in absorbance, Without antibody (Composition D) ([2]; sodium azide 60 mM): 43.8 mABS/min
- Relative sensitivity ([2]; sodium azide 60 mM): 95.4%
- Percent residual enzyme activity ([2]; sodium azide 60 mM): 4.6%
- Change in absorbance, Containing Antibody (Composition C) ([2]; sodium azide 90 mM): 2.4 mABS/min
- Change in absorbance, Without antibody (Composition D) ([2]; sodium azide 90 mM): 49.6 mABS/min
- Relative sensitivity ([2]; sodium azide 90 mM): 108.1%
- Percent residual enzyme activity ([2]; sodium azide 90 mM): 4.8%
- Change in absorbance, Containing Antibody (Composition C) ([2]; sodium azide 120 mM): 2.6 mABS/min
- Change in absorbance, Without antibody (Composition D) ([2]; sodium azide 120 mM): 53.1 mABS/min
- Relative sensitivity ([2]; sodium azide 120 mM): 115.7%
- Percent residual enzyme activity ([2]; sodium azide 120 mM): 4.9%
- Change in absorbance, Containing Antibody (Composition C) ([2]; sodium azide 150 mM): 2.4 mABS/min
- Change in absorbance, Without antibody (Composition D) ([2]; sodium azide 150 mM): 57.8 mABS/min
- Relative sensitivity ([2]; sodium azide 150 mM): 125.9%
- Percent residual enzyme activity ([2]; sodium azide 150 mM): 4.2%
- Change in absorbance, Containing Antibody (Composition C) ([2]; sodium azide 200 mM): 2.6 mABS/min
- Change in absorbance, Without antibody (Composition D) ([2]; sodium azide 200 mM): 61.1 mABS/min
- Relative sensitivity ([2]; sodium azide 200 mM): 133.1%
- Percent residual enzyme activity ([2]; sodium azide 200 mM): 4.3%
- Change in absorbance, Containing Antibody (Composition C) ([2]; sodium azide 250 mM): 2.5 mABS/min
- Change in absorbance, Without antibody (Composition D) ([2]; sodium azide 250 mM): 67.3 mABS/min
- Relative sensitivity ([2]; sodium azide 250 mM): 146.6%
- Percent residual enzyme activity ([2]; sodium azide 250 mM): 3.7%
- Change in absorbance, Containing Antibody (Composition C) ([2]; sodium azide 300 mM): 2.6 mABS/min
- Change in absorbance, Without antibody (Composition D) ([2]; sodium azide 300 mM): 66.8 mABS/min
- Relative sensitivity ([2]; sodium azide 300 mM): 145.5%
- Percent residual enzyme activity ([2]; sodium azide 300 mM): 3.9%
- percent inhibition of S-type amylase ([2]; irrespective of sodium azide concentrations, FIG. 4 and FIG. 5): around 95%
